Source: patent US7968323B2, “Bacterial ghost (BG) production process using betapropiolactone (BPL) for final inactivation” (priority 2008, dated 2011)

Legend:
[1] = test system: Shigella flexneri 2a (backbone plasmid pBBR1MCS5); assay: Control fermentations inactivated with BPL, CFU; assay type: cell-based; conditions: 0.05% BPL, 30 min, two control fermentations
Excerpt: (§1) During the production process samples of the culture broth are taken at fixed timepoints (labeled A-M in FIG. 3) to determine optical density, colony forming units (CFU), BG appearance by microscopy as well as for real time PCR analysis of DNA contents. Fermentation parameters like pH, air flow, pO2, stirring and temperature are automatically documented by the fermentation program. Throughout the consistency study all parameters were kept in a narrow window.
To determine the inactivation effect of BPL to Shigella flexneri 2a bacteria under the same fermentation conditions as for production of BG two control fermentations using Shigella flexneri 2a transformed with the backbone plasmid pBBR1MCS5 (no lysis, no nuclease) were performed. BPL killing rates as well as DNA concentration of bacterial samples was measured at time points and under fermentation conditions described for BG production (Example 1, FIG. 3).

[2] = test system: E. coli NM522 BG (pGlysivb); assay: BPL treatment in 20 l fermenter, E-lysed BG, CFU; assay type: cell-based; conditions: 0.05% BPL, 42° C., 30 min
Procedure: (§2) Gram negative bacteria (e.g E. coli or Shigella flexneri 2a in this study) are transformed with plasmid pGlysivb (encoding lysis gene E, construction as described in FIG. 2) or pGLNIc (encoding both the lysis gene E and the Staphylococcus aureus nuclease gene SNUC; WO 03/006630). Plasmids, pGlysivb and pGLNIc tightly regulate expression of lysis gene E by a temperature upshift from 35° C. to 42-44° C. under the mutated thermosensitive Lambda-promotor (λPRmut) and the expression of SNUC depends on induction from an upstream lac-promotor by addition of IPTG. As a consequence of protein E expression an E-specific tunnel structure between the inner and outer membrane of the bacteria is formed resulting in the expulsion of the cytoplasmic contents, including chromosomal and plasmid DNA, into the culture media under conditions described, at least 99.9% of all bacteria are converted into BG during the E-lysis process. To guarantee nucleic acid free BG a second system is activated in case of pGLNIc making use of the DNA and RNA degrading capabilities of SNUC. […]
(§3) BPL killing rates as well as DNA concentration of bacterial samples were measured at time points and under fermentation conditions as described for BG production (Example 1, FIG. 3).

[3] = test system: E. coli NM522 (pGlysivb, pSNUCIQ3); assay: BPL inactivation of E-SNUC BG in 20 l fermenter; assay type: cell-based; conditions: 42° C., 30 min
Procedure: as §2, with “SNUC. The nuclease is expressed −30 min before induction of gene E expression during the exponential growth phase of the bacteria and is activated after completion of E-lysis by addition of magnesiumchloride and calciumchloride.” for “SNUC.”

[4] = cited from earlier work
[5] = test system: E. coli BG NM522 (pGlysivb); assay: BPL treatment of E. coli BG NM522 (pGlysivb, E-lysis plasmid), small scale, CFU; assay type: cell-based; conditions: 0.05% BPL, 42° C., 30 min
Procedure: (§4) 2. Comparison of E. coli NM522 (pBBR1MCS5, no E-lysis) and E. coli BG NM522 (pGlysivb, E-lysis Plasmid) Treated vs. Nontreated with BPL at a Final Concentration of 0.05% BPL at 42° C.
(§5) Data from E. coli NM522 (pBBR1MCS5) that have been treated with 0.05% BPL at 42° C. (FIG. 4A) are showing that a reduction in viability of ˜5 log is obtained in small scale experiments whereas E. coli BG NM522 (pGlysivb) treated with 0.05% BPL at 42° C. […] Using a concentration of 0.05% BPL under a temperature of 42° C. and 30 min for the reaction is sufficient for E-lysed bacteria to be safely inactivated; no living cell counts are detected.

[6] = test system: E. coli NM522 pGlysivb; assay: Temperature study of BPL inactivation rates; assay type: cell-based; conditions: 0.05% BPL; for reduction of CFU: within 30 min; for time to BPL inactivation: starting CFU approximately 110^3/ml
Excerpt: The sterilizing activity of BPL and its self destruction in water is temperature dependant.

[7] = test system: E. coli NM522 (backbone plasmid pBBR1MCS5); assay: BPL treatment in 20 l fermenter, control without lysis, CFU; assay type: cell-based; conditions: 0.05% BPL, 42° C., 30 min
Excerpt: as §1, §3

[8] = test system: E. coli NM522 (pBBR1MCS5); assay: BPL treatment of E. coli NM522 (pBBR1MCS5, no E-lysis), small scale, CFU; assay type: cell-based; conditions: 0.05% BPL, 42° C., 30 min
Procedure: as §4, §5

## O=C1CCO1 [BPL, betapropiolactone]
[1]
  drop in living cell counts (CFU): 4 log
[2]
  inactivation, live CFU at end of BG production process: total inactivation
[3]
  concentration used for total inactivation by BPL: less than 0.025%
[4]
  solubility in water: highly soluble in water
[5]
  surviving bacteria after BPL treatment: no surviving bacteria
[6]; 16° C.
  reduction of CFU: less than 0.5 log
[6]; 28° C.
  reduction of CFU: approximately 1.5 log
[6]; 36° C.
  time to BPL inactivation: 30 min
[6]; 42° C.
  time to BPL inactivation: 15 min
[7]
  reduction in viability: ~3 log
[8]
  reduction in viability: ~5 log
